Test results as given in PubChem BioAssay AID256 (DTP/NCI, 2004).
Where “and” joins values, the source holds several entries; their conditions need not be identical. Equal values may be shown once. Inconclusive results and toxic doses are left out.

System: CD2F1 mice, L1210 leukemia ip, survival T/C
Test: NCI In Vivo Anticancer Drug Screen. Data for tumor model L1210 Leukemia (intraperitoneal) in CD2F1 (CDF1) mice
Conditions: higher = longer survival
In short: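 Implant tumor; dose compound or vehicle; measure endpoint in both groups; report treated divided by control.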

[1] = endpoint: mean survival time, dose: 100.0 mg/kg/injection, schedule: Q04DX003 (ip), vehicle: saline with Tween-80
[2] = endpoint: mean survival time, dose: 200.0 mg/kg/injection, schedule: Q04DX003 (ip), vehicle: saline with Tween-80
[3] = endpoint: mean survival time, dose: 400.0 mg/kg/injection, schedule: Q04DX003 (ip), vehicle: saline with Tween-80
[4] = endpoint: mean survival time, dose: 100.0 mg/kg/injection, schedule: Q01DX009 (ip), vehicle: saline with Tween-80
[5] = endpoint: mean survival time, dose: 200.0 mg/kg/injection, schedule: Q01DX009 (ip), vehicle: saline with Tween-80
[6] = endpoint: mean survival time, dose: 400.0 mg/kg/injection, schedule: Q01DX009 (ip), vehicle: saline with Tween-80
[7] = endpoint: mean survival time, dose: 100.0 mg/kg/injection, schedule: Q01DX001 (ip), vehicle: saline with Tween-80
[8] = endpoint: mean survival time, dose: 200.0 mg/kg/injection, schedule: Q01DX001 (ip), vehicle: saline with Tween-80
[9] = endpoint: mean survival time, dose: 5.0 mg/kg/injection, schedule: Q01DX001 (ip), vehicle: saline
[10] = endpoint: mean survival time, dose: 12.5 mg/kg/injection, schedule: Q01DX009 (ip), vehicle: other
[11] = endpoint: mean survival time, dose: 25.0 mg/kg/injection, schedule: Q01DX009 (ip), vehicle: other
[12] = endpoint: mean survival time, dose: 50.0 mg/kg/injection, schedule: Q01DX009 (ip), vehicle: other
[13] = endpoint: mean survival time, dose: 100.0 mg/kg/injection, schedule: Q01DX009 (ip), vehicle: other
[14] = endpoint: mean survival time, dose: 200.0 mg/kg/injection, schedule: Q01DX009 (ip), vehicle: other

`Cc1c(-c2ccc3c(c2)OCO3)no[n+]1[O-]` was tested, and the T/C [1] was 91 % of control, the T/C [2] was 98 % of control and the T/C [3] was 88 % of control.

In the case of `CCOc1ccc(NC(=O)C(C)O)cc1` (stereo unspecified), the T/C [4] is reported as 95 % of control, the T/C [1] is reported as 103 % of control and the T/C [5] is reported as 101 % of control. The T/C [2] was 97 % of control, the T/C [6] was 107 % of control and the T/C [3] was 97 % of control.

For `Oc1ccccc1C=NCC1CCCC[N-]1.Oc1ccccc1C=NCC1CCCC[N-]1.[Ni+2]` (stereo unspecified), the T/C (endpoint: mean survival time, dose: 25.0 mg/kg/injection, schedule: Q04DX002 (ip), vehicle: saline with Tween-80) was 101 % of control, the T/C (endpoint: mean survival time, dose: 50.0 mg/kg/injection, schedule: Q04DX002 (ip), vehicle: saline with Tween-80) was 98 % of control and the T/C [7] was 96 % of control. The T/C (endpoint: mean survival time, dose: 100.0 mg/kg/injection, schedule: Q04DX002 (ip), vehicle: saline with Tween-80) was 96 % of control, the T/C (endpoint: mean survival time, dose: 132.0 mg/kg/injection, schedule: Q01DX001 (ip), vehicle: saline with Tween-80) was 101 % of control and the T/C [8] was 102 % of control. The T/C (endpoint: mean survival time, dose: 200.0 mg/kg/injection, schedule: Q04DX002 (ip), vehicle: saline with Tween-80) was 101 % of control and the T/C (endpoint: mean survival time, dose: 300.0 mg/kg/injection, schedule: Q01DX001 (ip), vehicle: saline with Tween-80) was 107 % of control.

`CC(=O)OC(C)Cc1ccccc1` (stereo unspecified) was tested, and the T/C (endpoint: mean survival time, dose: 50.0 mg/kg/injection, schedule: Q01DX009 (ip), vehicle: saline with Tween-80) was 96 % of control, the T/C [4] was 96 % of control and the T/C [5] was 100 % of control.

For `CCCCCCCCCCCCCCCCOc1ccc(OCCCCCCCCCCCCCCC)cc1`, the T/C [7] was 88 % of control, the T/C [8] was 89 % of control and the T/C (endpoint: mean survival time, dose: 400.0 mg/kg/injection, schedule: Q01DX001 (ip), vehicle: saline with Tween-80) was 88 % of control.

In the case of `O=C1c2cccc(Oc3ccccc3)c2C(=O)c2cccc(Oc3ccccc3)c21`, the T/C [4] is reported as 94 % of control, the T/C [1] is reported as 96 % of control and the T/C [5] is reported as 89 % of control. For the same molecule, the T/C [2] was 97 % of control, the T/C [6] was 98 % of control and the T/C [3] was 94 % of control.

In the case of `CN(CCOS(C)(=O)=O)CCOS(C)(=O)=O`, the T/C [9] is reported as 121 % of control.

In the case of `c1ccc2c(c1)nnn1c3cnccc3nc21`, the T/C (endpoint: mean survival time, dose: 1.56 mg/kg/injection, schedule: Q01DX009 (ip), vehicle: saline with Tween-80) is reported as 101 % of control and 105 % of control, the T/C (endpoint: mean survival time, dose: 3.12 mg/kg/injection, schedule: Q01DX009 (ip), vehicle: saline with Tween-80) is reported as 94 % of control and 100 % of control and the T/C [9] is reported as 98 % of control. The T/C (endpoint: mean survival time, dose: 6.25 mg/kg/injection, schedule: Q01DX009 (ip), vehicle: saline with Tween-80) was 97 % of control and 103 % of control, the T/C (endpoint: mean survival time, dose: 10.0 mg/kg/injection, schedule: Q01DX001 (ip), vehicle: saline) was 101 % of control and the T/C (endpoint: mean survival time, dose: 12.5 mg/kg/injection, schedule: Q01DX009 (ip), vehicle: saline with Tween-80) was 101 % of control. For the same molecule, the T/C (endpoint: mean survival time, dose: 20.0 mg/kg/injection, schedule: Q01DX001 (ip), vehicle: saline) was 98 % of control and the T/C (endpoint: mean survival time, dose: 25.0 mg/kg/injection, schedule: Q01DX009 (ip), vehicle: saline with Tween-80) was 103 % of control.

`CC(=O)OC1C(CNC(=O)N(C)N=O)OC(OC2(CNC(=O)N(C)N=O)OC(CNC(=O)N(C)N=O)C(OC(C)=O)C2OC(C)=O)C(OC(C)=O)C1OC(C)=O` (stereo unspecified) was tested, and the T/C [10] was 93 % of control, the T/C [11] was 94 % of control and the T/C [12] was 104 % of control. For the same molecule, the T/C [13] was 102 % of control and the T/C [14] was 120 % of control.

For `NC1CCCCC1N.O=S(=O)([O-])CCCN1CCN(CCO)CC1.O=S(=O)([O-])CCCN1CCN(CCO)CC1.[Pt+4]`, the T/C (endpoint: median survival time, dose: 0.78 mg/kg/injection, schedule: Q04DX003 (ip), vehicle: saline) was 121 % of control, the T/C (endpoint: median survival time, dose: 1.56 mg/kg/injection, schedule: Q04DX003 (ip), vehicle: saline) was 120 % of control and the T/C (endpoint: median survival time, dose: 6.25 mg/kg/injection, schedule: Q04DX003 (ip), vehicle: saline) was 168 % of control and 175 % of control. For the same molecule, the T/C (endpoint: median survival time, dose: 12.5 mg/kg/injection, schedule: Q04DX003 (ip), vehicle: saline) was 212 % of control and 487 % of control, the T/C (endpoint: median survival time, dose: 25.0 mg/kg/injection, schedule: Q04DX003 (ip), vehicle: saline) was 256 % of control and 487 % of control and the T/C (endpoint: median survival time, dose: 50.0 mg/kg/injection, schedule: Q04DX003 (ip), vehicle: saline) was 151 % of control and 170 % of control.

In the case of `Cc1ccc(S(=O)(=O)NC(=S)c2ccccc2)cc1`, the T/C [7] is reported as 97 % of control and the T/C [8] is reported as 105 % of control.

With `COc1ccc(C(=O)/C(C)=C(/C)NCCC#N)c(OCc2ccccc2)c1OC` the T/C [10] was 97 % of control, the T/C [11] was 97 % of control and the T/C [12] was 97 % of control. The T/C [13] was 95 % of control and the T/C [14] was 104 % of control.

`CS(=O)(=O)c1nnc(-c2ccccc2)s1` was tested, and the T/C (endpoint: mean survival time, dose: 100.0 mg/kg/injection, schedule: Q04DX003 (ip), vehicle: Klucel (hydroxypropylcellulose) (HPC)) was 90 % of control and the T/C (endpoint: mean survival time, dose: 200.0 mg/kg/injection, schedule: Q04DX003 (ip), vehicle: Klucel (hydroxypropylcellulose) (HPC)) was 90 % of control.

`N#CCc1nn(C2OC(CO)C(O)C2O)nc1C(N)=O` (stereo unspecified) was tested, and the T/C (endpoint: median survival time, dose: 8.5 mg/kg/injection, schedule: Q01DX005 (ip), vehicle: water) was 103 % of control, the T/C (endpoint: median survival time, dose: 17.0 mg/kg/injection, schedule: Q01DX005 (ip), vehicle: water) was 103 % of control and the T/C (endpoint: median survival time, dose: 34.0 mg/kg/injection, schedule: Q01DX005 (ip), vehicle: water) was 100 % of control. The T/C (endpoint: median survival time, dose: 38.0 mg/kg/injection, schedule: Q01DX005 (ip), vehicle: water) was 97 % of control and the T/C (endpoint: median survival time, dose: 136.0 mg/kg/injection, schedule: Q01DX005 (ip), vehicle: water) was 100 % of control.

`Nc1n[n+](-c2ccc(Cl)cc2)no1` was tested, and the T/C (endpoint: mean survival time, dose: 1.56 mg/kg/injection, schedule: Q01DX009 (ip), vehicle: water) was 92 % of control, the T/C (endpoint: mean survival time, dose: 3.12 mg/kg/injection, schedule: Q01DX009 (ip), vehicle: water) was 97 % of control and 112 % of control and the T/C (endpoint: mean survival time, dose: 6.25 mg/kg/injection, schedule: Q01DX009 (ip), vehicle: water) was 93 % of control and 96 % of control. For the same molecule, the T/C (endpoint: mean survival time, dose: 12.5 mg/kg/injection, schedule: Q01DX009 (ip), vehicle: water) was 95 % of control and 98 % of control, the T/C (endpoint: mean survival time, dose: 25.0 mg/kg/injection, schedule: Q01DX009 (ip), vehicle: water) was 103 % of control and 104 % of control and the T/C (endpoint: mean survival time, dose: 50.0 mg/kg/injection, schedule: Q01DX009 (ip), vehicle: water) was 114 % of control.

In the case of `O=C(Oc1ccc(OC(=O)c2ccccc2)c([N+](=O)[O-])c1)c1ccccc1`, the T/C (endpoint: mean survival time, dose: 75.0 mg/kg/injection, schedule: Q01DX001 (ip), vehicle: saline) is reported as 89 % of control, the T/C (endpoint: mean survival time, dose: 150.0 mg/kg/injection, schedule: Q01DX001 (ip), vehicle: saline) is reported as 98 % of control and the T/C (endpoint: mean survival time, dose: 300.0 mg/kg/injection, schedule: Q01DX001 (ip), vehicle: saline) is reported as 98 % of control.

With `C(#CC[P+](c1ccccc1)(c1ccccc1)c1ccccc1)C[P+](c1ccccc1)(c1ccccc1)c1ccccc1` the T/C (endpoint: mean survival time, dose: 0.78 mg/kg/injection, schedule: Q01DX009 (ip), vehicle: Klucel (hydroxypropylcellulose) (HPC)) was 92 % of control, the T/C (endpoint: mean survival time, dose: 1.56 mg/kg/injection, schedule: Q01DX009 (ip), vehicle: Klucel (hydroxypropylcellulose) (HPC)) was 92 % of control and the T/C (endpoint: mean survival time, dose: 3.12 mg/kg/injection, schedule: Q01DX009 (ip), vehicle: Klucel (hydroxypropylcellulose) (HPC)) was 90 % of control. For the same molecule, the T/C (endpoint: mean survival time, dose: 6.25 mg/kg/injection, schedule: Q01DX009 (ip), vehicle: Klucel (hydroxypropylcellulose) (HPC)) was 101 % of control and the T/C (endpoint: mean survival time, dose: 12.5 mg/kg/injection, schedule: Q01DX009 (ip), vehicle: Klucel (hydroxypropylcellulose) (HPC)) was 93 % of control and 107 % of control.

`COc1cc(N=C(N)N=C(N)N)c2ncccc2c1` was tested, and the T/C (endpoint: mean survival time, dose: 100.0 mg/kg/injection, schedule: Q04DX002 (ip), vehicle: saline) was 90 % of control and the T/C (endpoint: mean survival time, dose: 200.0 mg/kg/injection, schedule: Q04DX002 (ip), vehicle: saline) was 90 % of control.

`Cc1cn(C2CCC3(C)C(=CCC4C3CCC3(C)C(C(C)CCCC(C)C)CCC43)C2)c(=O)[nH]c1=O` (stereo unspecified) was tested, and the T/C (endpoint: mean survival time, dose: 37.5 mg/kg/injection, schedule: Q01DX001 (ip), vehicle: Klucel (hydroxypropylcellulose) (HPC)) was 88 % of control, the T/C (endpoint: mean survival time, dose: 75.0 mg/kg/injection, schedule: Q01DX001 (ip), vehicle: Klucel (hydroxypropylcellulose) (HPC)) was 91 % of control and the T/C (endpoint: mean survival time, dose: 150.0 mg/kg/injection, schedule: Q01DX001 (ip), vehicle: Klucel (hydroxypropylcellulose) (HPC)) was 91 % of control. The T/C (endpoint: mean survival time, dose: 300.0 mg/kg/injection, schedule: Q01DX001 (ip), vehicle: Klucel (hydroxypropylcellulose) (HPC)) was 91 % of control.

`CCCCCCCCOC(=O)C12Oc3ccc(-c4ccc5c(c4O)C(O)=C4C(=O)CC(C)C(O)C4(C(=O)OCCCCCCCC)O5)c(O)c3C(O)=C1C(=O)CC(C)C2O` (stereo unspecified) was tested, and the T/C (endpoint: mean survival time, dose: 2.5 mg/kg/injection, schedule: Q01DX009 (ip), vehicle: saline with Tween-80) was 97 % of control, the T/C (endpoint: mean survival time, dose: 5.0 mg/kg/injection, schedule: Q01DX009 (ip), vehicle: saline with Tween-80) was 97 % of control and the T/C (endpoint: mean survival time, dose: 10.0 mg/kg/injection, schedule: Q01DX009 (ip), vehicle: saline with Tween-80) was 97 % of control.
